Patent US20260224678A1, “EXPEDITED NEOANTIGEN VACCINES” (priority 2023, published 2026)

Test system: T cells
Assay: Elispot response after vaccination with neoepitope peptides
Type: cell-based, human
Conditions: subject with R132H mutation of IDH1 vaccinated multiple times with two 9 mer peptides and a 15 mer peptide carrying the motifs
Description: As noted above, T cell exposed motif frequency is also a criterion for selection of vaccinal peptides from mutated passenger gene products. Table 10—(also replicated as FIG. 5) provides an example for a particular individual cancer-affected subject showing the selection of the most advantageous peptides based on frequency of occurrence in reference databases of pentamer counts and the subject's HLA alleles. When the pentamers in tumor specific T cell exposed motifs that expose a mutated amino acid are absent or low frequency in the human proteome, particular attention is paid to the frequency count in databases of exogenous proteins. In the table we show application of the representative gastrointestinal microbiome dataset. Application of this database should not be considered limiting and other reference sets likely to be indicative of prior epitope exposure may be applied. In this example the top two passenger mutations (in genes ARHGAP5 and ATIC) have T cell exposed motifs which are common. However, the lower two mutations (in CDC42 and CHD6) are poorly represented in the human and gastrointestinal microbiome reference datasets. Selected peptides for these two mutated proteins (margins boxed in FIG. 5) that best fulfil the criteria of frequency and also binding to this subject's known HLA alleles include SEQ ID NO.:s. 1891, 1897, 1898, 1914, 1915, 1916, 1921. In another embodiment a subject affected with a R132H mutation of IDH1 was vaccinated multiple times with two 9 mer peptides both exposing the mutant histidine. One peptide carried T cell exposed motif ~~~IGHHA~ (SEQ ID NO.: 1924) and the other carrying ~~~GHHAY~ SEQ ID NO.: 1925 and a 15 mer peptide comprising KP~I~GH SEQ ID NO.: 1927. A positive Elispot response was detected to SEQ ID NO.: 1924 and 1927 but not SEQ ID NO.: 1925.
Methods of expansion of T cells and sequencing of the T cell receptors (TCR) therein are known to the art. […]

Row | Substance | Elispot
1 | 1927 (KPIGH) [compound 1927] | positive
2 | 1925 (GHHAY) [compound 1925] | negative
3 | 1924 (IGHHA) [compound 1924] | positive
